Results on 8 molecules are retold here after patent publication US20240376097A1, “BCL-2 Inhibitor” (BeiGene Ltd., priority 2020, published 2024).

Where two headings read alike, the source gives them in different places.

In experiment [1] the test system is BCL-2 G101V knock-in cell line H96 (derive from RS4;11). As to the kind of experiment: Bcl 2-G101V Knock-In RS4;11 Cell Proliferation Assay. As to conditions: Homo sapiens, RS4;11 Bcl-2 G101V knock-in clone H96, 48 hrs, CellTiter-GLO, read-out: Cellular proliferation assay (IC50, nM) RS4. The format is cell-based. Summed up:
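CellTiter-Glo luminescence after 48 h, 37 °C compound treatment (10 concentrations, maximum 1 μM or 10 μM) gave mean IC50 values. Cells were 50,000 per well of H96, a BCL2-G101V knock-in single clone derived from RS4;11 by Cas9 editing.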
(Cellular ATP, detected with luciferase, serves as a proxy for viable cell number.)

Experiment [2] relates to recombinant human Bcl-2-G101V protein. As to the kind of experiment: Bcl-2-G101V TR-FRET Assay. The format is binding. The conditions noted are these: ratio of biochemical IC50 Bcl-2 G101V / Bcl-2 WT. The gist of the method:
(§1)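 TR-FRET read at excitation 337 nm with emission at 490 nm and 520 nm. Inhibition of Bcl-2-G101V binding to its ligand across increasing compound concentrations was calculated from the 490/520 nm fluorescence ratio, and IC50 values came from four-parameter logistic fits.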

In experiment [3] the target is recombinant human Bcl-2-G101V protein (Homo sapiens (Human), UniProt P10415, G101V). As to the kind of experiment: Bcl-2-G101V TR-FRET Assay. The format is binding. The conditions noted are these: Bcl-2 G101V mutant, TR-FRET; read-out: Biochemical assay (IC50, nM) Bcl-2 G101V. The gist of the method: as §1
The target in experiment [4] is recombinant human Bcl-2 D103Y protein (Homo sapiens (Human), UniProt P10415, D103Y). The experiment is described as follows: Bcl-2-D103Y Biochemical Assay (TR-FRET). As to conditions: for IC50: TR-FRET, FITC labeled Bak peptide; for Ratio of Bcl-2 D103Y/Bcl-2 WT: ratio of IC50. The format is binding. Summed up: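 Compounds titrated against the Bcl-2 D103Y–ligand interaction; inhibition derived from the TR-FRET emission ratio 490 nm/520 nm after 337 nm excitation. Four-parameter logistic fitting gave IC50.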
In general terms: Time-resolved FRET reads energy transfer from a long-lived donor to a nearby acceptor.

Experiment [5] has as its target Recombinant human Bcl-2 protein (Homo sapiens (Human), UniProt P10415). The experiment is described as follows: Bcl-2 TR-FRET Assay. The format is binding. Summed up:
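Displacement of FITC-labelled Bak peptide (0.5 nM) from 0.05 nM human Bcl-2, detected by TR-FRET with Tb-cryptate anti-6His antibody after 1 h at room temperature. Compounds, 10-point series, preincubated 0.5 h with protein in 20 mM potassium phosphate pH 7.5, 50 mM NaCl. IC50s fitted by four-parameter logistic.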

For experiment [6], the system named is RS4;11 (BCL-2 dependent acute lymphoblastic leukemia cell line). The experiment is described as follows: RS4;11 Cell Proliferation Assay. The format is cell-based. The conditions noted are these: Homo sapiens, RS4-11, RS4;11 cells, read-out: Cellular proliferation assay (IC50, nM) RS4. The gist of the method:
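Viability measured via CellTiter-Glo luminescence after a 48 h, 37 °C exposure to compounds (10 points, highest 1 μM). Seeding was 50,000 RS4;11 cells per well in 10% FBS RPMI-1640; IC50 given as mean.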

[7] abbreviates: Bcl-2 wild type, TR-FRET, read-out: Biochemical assay (IC50, nM) Bcl-2 WT.
[8] abbreviates: wild type Bcl-2, unit inferred, read-out: Bcl-2 WT.

With `COc1ccc(CN2CCN(C3CC4(CCN(c5ccc(C(=O)NS(=O)(=O)c6ccc(NC[C@H]7CC[C@](C)(O)CC7)c([N+](=O)[O-])c6)c(Oc6cnc7[nH]ccc7c6)c5)CC4)C3)[C@H](c3ccccc3C(C)C)C2)cn1` [Example 185, 2-((1H-pyrrolo[2,3-b]pyridin-5-yl)oxy)-N-((4-((((1r,4r)-4-hydroxy-4-methylcyclohexyl)methyl)amino)-3-nitrophenyl)sulfonyl)-4-(2-((R)-2-(2-isopropylphenyl)-4-((6-methoxypyridin-3-yl)methyl)piperazin-1-yl)-7-azaspiro[3.5]nonan-7-yl)benzamide], the IC50 came to 0.6 nM in experiment [1]; 0.14 nM in experiment [3]; 0.05 nM in experiment [4]; 0.031 nM in experiment [5] (setting [7]); 0.031 nM in experiment [5] (setting [8]); 0.14 nM in experiment [6]. Also, in experiment [2], the “Ratio of Bcl-2 G101V/WT” value worked out at 4.5. The “Ratio of Bcl-2 D103Y/Bcl-2 WT” value in experiment [4] came out at 1.6.

`COc1cc(CN2CCN(C3CC4(CCN(c5ccc(C(=O)NS(=O)(=O)c6ccc(NC[C@H]7CC[C@](C)(O)CC7)c([N+](=O)[O-])c6)c(Oc6cnc7[nH]cc(F)c7c6)c5)CC4)C3)[C@H](c3ccccc3C(C)C)C2)ccc1F` [Example 190, 2-((3-fluoro-1H-pyrrolo[2,3-b]pyridin-5-yl)oxy)-4-(2-((R)-4-(4-fluoro-3-methoxybenzyl)-2-(2-isopropylphenyl)piperazin-1-yl)-7-azaspiro[3.5]nonan-7-yl)-N-((4-((((1r,4r)-4-hydroxy-4-methylcyclohexyl)methyl)amino)-3-nitrophenyl)sulfonyl)benzamide]: the IC50 in experiment [1] is 0.37 nM; in experiment [3] it was 0.62 nM; in experiment [4], 0.34 nM; in experiment [5] (setting [7]), 0.23 nM; in experiment [5] (setting [8]) it was 0.23 nM; in experiment [6], 0.13 nM. The “Ratio of Bcl-2 G101V/WT” value in experiment [2] was determined as 2.7. Further, the “Ratio of Bcl-2 D103Y/Bcl-2 WT” value in experiment [4] came out at 1.5.

On to `COc1ccc(CN2CCN(C3CC4(CCN(c5ccc(C(=O)NS(=O)(=O)c6ccc(NC[C@H]7CC[C@](C)(O)CC7)c([N+](=O)[O-])c6)c(Oc6cnc7[nH]ccc7c6)c5)CC4)C3)C(c3ccccc3C(C)C)C2)nc1OC` (stereo partly shown) [Example 194, 2-((1H-pyrrolo[2,3-b]pyridin-5-yl)oxy)-4-(2-(4-((5,6-dimethoxypyridin-2-yl)methyl)-2-(2-isopropylphenyl)piperazin-1-yl)-7-azaspiro[3.5]nonan-7-yl)-N-((4-((((1r,4r)-4-hydroxy-4-methylcyclohexyl)methyl)amino)-3-nitrophenyl)sulfonyl)benzamide], for which the IC50 was found to be 0.82 nM in experiment [1]; 0.16 nM in experiment [3]; 0.072 nM in experiment [4]; 0.051 nM in experiment [5] (setting [7]); 0.051 nM in experiment [5] (setting [8]); 0.3 nM in experiment [6]. In experiment [2], the “Ratio of Bcl-2 G101V/WT” value came to 3.1. Besides, the “Ratio of Bcl-2 D103Y/Bcl-2 WT” value in experiment [4] came to 1.4.

For `[2H]C([2H])([2H])Oc1ccc(CN2CCN(C3CC4(C3)CN(c3ccc(C(=O)NS(=O)(=O)c5ccc(NC[C@H]6CC[C@](C)(O)CC6)c([N+](=O)[O-])c5)c(Oc5cnc6[nH]cc(F)c6c5)c3)C4)[C@H](c3ccccc3C(C)C)C2)cc1OC([2H])([2H])[2H]` [Example 197, 4-(6-((R)-4-(3,4-bis(methoxy-d3)benzyl)-2-(2-isopropylphenyl)piperazin-1-yl)-2-azaspiro[3.3]heptan-2-yl)-2-((3-fluoro-1H-pyrrolo[2,3-b]pyridin-5-yl)oxy)-N-((4-((((1r,4r)-4-hydroxy-4-methylcyclohexyl)methyl)amino)-3-nitrophenyl)sulfonyl)benzamide], the IC50 turned out to be 0.29 nM in experiment [1]; 0.15 nM in experiment [3]; 0.089 nM in experiment [4]; 0.076 nM in experiment [5] (setting [7]); 0.076 nM in experiment [5] (setting [8]); 0.16 nM in experiment [6]. The “Ratio of Bcl-2 G101V/WT” value in experiment [2] stood at 1.9. Also, the “Ratio of Bcl-2 D103Y/Bcl-2 WT” value in experiment [4] worked out at 1.2.

Take `COc1ccc(CN2CCN(C3CC4(CCN(c5ccc(C(=O)NS(=O)(=O)c6ccc(NC[C@H]7CC[C@](C)(O)CC7)c([N+](=O)[O-])c6)c(Oc6cnc7[nH]ccc7c6)c5)CC4)C3)C(c3ccccc3C(C)C)C2)c2c1OCCO2` (stereo partly shown) [Example 203, 2-((1H-pyrrolo[2,3-b]pyridin-5-yl)oxy)-N-((4-((((1r,4r)-4-hydroxy-4-methylcyclohexyl)methyl)amino)-3-nitrophenyl)sulfonyl)-4-(2-(2-(2-isopropylphenyl)-4-((8-methoxy-2,3-dihydrobenzo[b][1,4]dioxin-5-yl)methyl)piperazin-1-yl)-7-azaspiro[3.5]nonan-7-yl) benzamide]: the IC50 in experiment [1] was found to be 0.9 nM; in experiment [3] it was 0.17 nM; in experiment [4], 0.083 nM; in experiment [5] (setting [7]), 0.052 nM; in experiment [5] (setting [8]), 0.052 nM; in experiment [6], 0.38 nM. For the same molecule, in experiment [2], the “Ratio of Bcl-2 G101V/WT” value is reported as 3.2. Also, the “Ratio of Bcl-2 D103Y/Bcl-2 WT” value in experiment [4] is on record as 1.6.

For `COc1cc(CN2CCN(C3CC4(C3)CN(c3ccc(C(=O)NS(=O)(=O)c5ccc(NC[C@H]6CC[C@](C)(O)CC6)c([N+](=O)[O-])c5)c(Oc5cnc6[nH]cc(F)c6c5)c3)C4)[C@H](c3ccccc3C(C)C)C2)cnc1OC` [Example 205, 4-(6-((R)-4-((5,6-dimethoxypyridin-3-yl)methyl)-2-(2-isopropylphenyl)piperazin-1-yl)-2-azaspiro[3.3]heptan-2-yl)-2-((3-fluoro-1H-pyrrolo[2,3-b]pyridin-5-yl)oxy)-N-((4-((((1r,4r)-4-hydroxy-4-methylcyclohexyl)methyl)amino)-3-nitrophenyl)sulfonyl) benzamide], the IC50 in experiment [1] came to 0.55 nM; in experiment [3], 0.07 nM; in experiment [4], 0.047 nM; in experiment [5] (setting [7]), 0.034 nM; in experiment [5] (setting [8]) it was 0.034 nM; in experiment [6] it was 0.39 nM. Also, in experiment [2], the “Ratio of Bcl-2 G101V/WT” value is 2. Moreover, in experiment [4], the “Ratio of Bcl-2 D103Y/Bcl-2 WT” value is 1.4.

Consider `COc1ccc(CN2CCN(C3CC4(C3)CN(c3ccc(C(=O)NS(=O)(=O)c5ccc(NC[C@H]6CC[C@](C)(O)CC6)c([N+](=O)[O-])c5)c(Oc5cnc6[nH]cc(F)c6c5)c3)C4)[C@H](c3ccccc3C(C)C)C2)cn1` [Example 215, 2-((3-fluoro-1H-pyrrolo[2,3-b]pyridin-5-yl)oxy)-N-((4-((((1r,4r)-4-hydroxy-4-methylcyclohexyl)methyl)amino)-3-nitrophenyl)sulfonyl)-4-(6-((R)-2-(2-isopropylphenyl)-4-((6-methoxypyridin-3-yl)methyl)piperazin-1-yl)-2-azaspiro[3.3]heptan-2-yl)benzamide], for which the IC50 in experiment [1] was determined as 0.29 nM; in experiment [3], 0.14 nM; in experiment [4], 0.062 nM; in experiment [5] (setting [7]) it was 0.057 nM; in experiment [5] (setting [8]), 0.057 nM; in experiment [6] it was 0.11 nM. Moreover, the “Ratio of Bcl-2 G101V/WT” value in experiment [2] was determined as 2.5. Further, the “Ratio of Bcl-2 D103Y/Bcl-2 WT” value in experiment [4] came out at 1.1.

Regarding `COc1ccc(CN2CCN(C3CC4(CCN(c5ccc(C(=O)NS(=O)(=O)c6ccc(NC[C@H]7CC[C@](C)(O)CC7)c([N+](=O)[O-])c6)c(Oc6cnc7[nH]cc(F)c7c6)c5)CC4)C3)[C@H](c3ccccc3C(C)C)C2)cn1` [Example 217, 2-((3-fluoro-1H-pyrrolo[2,3-b]pyridin-5-yl)oxy)-N-((4-((((1r,4r)-4-hydroxy-4-methylcyclohexyl)methyl)amino)-3-nitrophenyl)sulfonyl)-4-(2-((R)-2-(2-isopropylphenyl)-4-((6-methoxypyridin-3-yl)methyl)piperazin-1-yl)-7-azaspiro[3.5]nonan-7-yl)benzamide], the IC50 in experiment [1] is 0.41 nM; in experiment [3], 0.17 nM; in experiment [4], 0.1 nM; in experiment [5] (setting [7]) it was 0.074 nM; in experiment [5] (setting [8]), 0.074 nM; in experiment [6], 0.11 nM. The “Ratio of Bcl-2 G101V/WT” value in experiment [2] was found to be 2.4. Further, in experiment [4], the “Ratio of Bcl-2 D103Y/Bcl-2 WT” value was determined as 1.4.
